This passage reports IC50, AC50 and EC50 results from ChEMBL document CHEMBL1201862, “PubChem BioAssay data set” (2004).

For one test, the target named is SUMO-activating enzyme (Homo sapiens, UniProt Q9UBT2). As to the kind of experiment: inhibitors of in vitro SUMOylation cascade, primary screen, biochemical, HTRF, uHTS (AID 2006). The format is protein-complex assay.
The target of test [1] is T1, Replicative DNA helicase DnaB (Mycobacterium tuberculosis, UniProt P9WMR3).
T1 sequence (P9WMR3 whole entry): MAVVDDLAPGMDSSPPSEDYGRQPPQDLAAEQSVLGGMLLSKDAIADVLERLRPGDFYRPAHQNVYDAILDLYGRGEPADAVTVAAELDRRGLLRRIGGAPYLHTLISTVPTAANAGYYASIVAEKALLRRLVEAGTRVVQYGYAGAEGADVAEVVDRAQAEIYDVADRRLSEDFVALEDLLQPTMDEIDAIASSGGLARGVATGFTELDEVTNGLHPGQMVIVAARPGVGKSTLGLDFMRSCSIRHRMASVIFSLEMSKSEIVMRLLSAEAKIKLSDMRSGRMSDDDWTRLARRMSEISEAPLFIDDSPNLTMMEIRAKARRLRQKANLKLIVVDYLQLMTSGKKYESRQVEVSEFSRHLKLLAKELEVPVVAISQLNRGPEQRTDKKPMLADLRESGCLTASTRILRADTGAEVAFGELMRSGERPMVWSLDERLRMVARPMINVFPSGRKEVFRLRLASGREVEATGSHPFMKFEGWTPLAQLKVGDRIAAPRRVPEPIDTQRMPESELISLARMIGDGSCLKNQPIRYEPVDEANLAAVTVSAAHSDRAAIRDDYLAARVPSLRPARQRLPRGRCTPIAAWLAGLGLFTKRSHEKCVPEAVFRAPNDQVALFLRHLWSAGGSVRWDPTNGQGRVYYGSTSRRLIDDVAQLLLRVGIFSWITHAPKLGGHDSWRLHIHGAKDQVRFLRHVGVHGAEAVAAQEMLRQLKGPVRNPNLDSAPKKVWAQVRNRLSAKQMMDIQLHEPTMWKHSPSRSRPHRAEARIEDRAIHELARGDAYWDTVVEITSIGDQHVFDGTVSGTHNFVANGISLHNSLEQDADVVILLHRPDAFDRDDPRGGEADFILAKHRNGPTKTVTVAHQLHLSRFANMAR
As to the kind of experiment: DnaB intein splicing inhibitors, dose response, biochemical, cell-free fluorescence (AID 449749). It counts as functional.

In another test the target is T2, Protein RecA (Mycobacterium tuberculosis, UniProt P9WHJ3).
T2 sequence (P9WHJ3 whole entry): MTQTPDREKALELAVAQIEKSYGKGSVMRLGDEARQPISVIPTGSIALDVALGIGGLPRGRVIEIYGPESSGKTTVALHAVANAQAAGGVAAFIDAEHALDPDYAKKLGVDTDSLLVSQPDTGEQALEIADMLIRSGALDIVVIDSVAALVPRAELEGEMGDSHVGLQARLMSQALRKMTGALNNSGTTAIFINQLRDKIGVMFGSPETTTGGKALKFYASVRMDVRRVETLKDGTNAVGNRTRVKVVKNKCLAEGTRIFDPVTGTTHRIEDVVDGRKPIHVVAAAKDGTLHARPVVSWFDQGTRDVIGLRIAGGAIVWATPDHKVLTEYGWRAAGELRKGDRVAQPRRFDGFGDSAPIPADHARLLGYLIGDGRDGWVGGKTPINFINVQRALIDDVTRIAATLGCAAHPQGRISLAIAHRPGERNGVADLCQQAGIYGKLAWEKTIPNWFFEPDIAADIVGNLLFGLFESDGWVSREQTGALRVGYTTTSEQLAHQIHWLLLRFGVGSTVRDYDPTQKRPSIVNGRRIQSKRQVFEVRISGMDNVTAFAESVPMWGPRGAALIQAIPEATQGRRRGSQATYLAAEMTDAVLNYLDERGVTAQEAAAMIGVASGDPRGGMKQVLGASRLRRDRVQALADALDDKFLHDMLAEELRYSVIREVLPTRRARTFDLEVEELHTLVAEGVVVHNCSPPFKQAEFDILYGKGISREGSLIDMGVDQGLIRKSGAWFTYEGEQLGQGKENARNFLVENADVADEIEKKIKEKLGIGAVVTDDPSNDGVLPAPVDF
Nature of the test: Fluorescence Cell-Free Homogeneous Dose Retest to Identify Inhibitors of RecA-Intein Splicing Activity. [Related pubchem assays (depositor defined):AID2097, AID2223, AID489010, AID492950]. The format is functional.

The target in test [2] is T3, Dual specificity protein phosphatase 3 (Homo sapiens, UniProt P51452). Nature of the test: SAR VHR1 absorbance Assay for In Vitro dose response studies. [Related pubchem assays (depositor defined):AID1654, AID1661, AID1878, AID1992, AID2004].
T3 sequence (P51452 whole entry): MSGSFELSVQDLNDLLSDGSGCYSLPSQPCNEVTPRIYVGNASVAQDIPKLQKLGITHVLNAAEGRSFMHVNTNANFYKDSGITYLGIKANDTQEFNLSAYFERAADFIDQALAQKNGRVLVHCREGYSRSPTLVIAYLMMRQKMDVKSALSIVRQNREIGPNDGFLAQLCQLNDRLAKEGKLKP
Test [3] concerns the target T3, Dual specificity protein phosphatase 3. As to the kind of experiment: VHR1 phosphatase inhibitors, biochemical (AID 1878).
Another test concerns the target T4, Insulin-degrading enzyme (Homo sapiens, UniProt P14735).
T4 sequence (P14735 whole entry): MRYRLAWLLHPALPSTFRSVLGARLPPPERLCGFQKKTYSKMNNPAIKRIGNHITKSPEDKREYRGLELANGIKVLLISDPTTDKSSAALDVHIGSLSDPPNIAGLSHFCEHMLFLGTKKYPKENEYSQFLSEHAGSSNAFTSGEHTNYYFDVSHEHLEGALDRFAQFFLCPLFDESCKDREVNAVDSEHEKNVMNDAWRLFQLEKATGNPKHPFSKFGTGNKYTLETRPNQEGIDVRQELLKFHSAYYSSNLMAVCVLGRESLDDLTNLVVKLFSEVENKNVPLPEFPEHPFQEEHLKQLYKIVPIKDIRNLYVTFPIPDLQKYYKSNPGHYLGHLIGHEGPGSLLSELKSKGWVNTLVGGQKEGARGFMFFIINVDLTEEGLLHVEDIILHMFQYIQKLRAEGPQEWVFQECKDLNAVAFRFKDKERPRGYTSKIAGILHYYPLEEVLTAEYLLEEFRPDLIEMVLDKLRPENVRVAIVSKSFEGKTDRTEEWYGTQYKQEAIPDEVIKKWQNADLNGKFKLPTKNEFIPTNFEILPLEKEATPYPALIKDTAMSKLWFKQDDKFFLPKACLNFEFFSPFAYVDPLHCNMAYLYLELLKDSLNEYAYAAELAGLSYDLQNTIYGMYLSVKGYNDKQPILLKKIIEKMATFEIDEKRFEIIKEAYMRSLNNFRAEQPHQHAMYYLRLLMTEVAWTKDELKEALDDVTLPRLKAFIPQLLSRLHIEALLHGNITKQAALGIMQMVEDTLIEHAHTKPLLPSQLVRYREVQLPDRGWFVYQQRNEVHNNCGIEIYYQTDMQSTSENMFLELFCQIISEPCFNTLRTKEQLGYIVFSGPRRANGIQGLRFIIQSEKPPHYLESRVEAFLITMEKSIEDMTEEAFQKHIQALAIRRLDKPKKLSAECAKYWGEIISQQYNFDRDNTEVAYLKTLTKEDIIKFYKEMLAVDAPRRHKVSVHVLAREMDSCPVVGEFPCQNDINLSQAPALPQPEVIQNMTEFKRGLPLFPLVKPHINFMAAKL
As to the kind of experiment: activators of recombinant IDE enzyme, dose response, counter-screen for IDE activator project, biochemical, fluorescence polarization (AID 588681). Background: A counterscreen serves to expose hits that act by an unwanted route or on another target.

SMILES strings stand for the structures. Active and inactive are the calls of the source.

Sequence of SUMO-activating enzyme (Q9UBE0 whole entry): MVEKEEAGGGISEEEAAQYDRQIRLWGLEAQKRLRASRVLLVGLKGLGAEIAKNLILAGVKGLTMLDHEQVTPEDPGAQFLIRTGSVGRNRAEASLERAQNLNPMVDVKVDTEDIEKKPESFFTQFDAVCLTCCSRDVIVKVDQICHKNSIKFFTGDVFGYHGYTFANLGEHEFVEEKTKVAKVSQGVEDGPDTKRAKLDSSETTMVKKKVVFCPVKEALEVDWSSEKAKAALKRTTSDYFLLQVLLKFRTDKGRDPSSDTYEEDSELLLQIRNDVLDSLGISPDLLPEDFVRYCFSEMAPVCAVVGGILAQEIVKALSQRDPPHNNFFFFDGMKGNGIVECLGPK
Sequence of SUMO-activating enzyme (Q9UBT2 whole entry): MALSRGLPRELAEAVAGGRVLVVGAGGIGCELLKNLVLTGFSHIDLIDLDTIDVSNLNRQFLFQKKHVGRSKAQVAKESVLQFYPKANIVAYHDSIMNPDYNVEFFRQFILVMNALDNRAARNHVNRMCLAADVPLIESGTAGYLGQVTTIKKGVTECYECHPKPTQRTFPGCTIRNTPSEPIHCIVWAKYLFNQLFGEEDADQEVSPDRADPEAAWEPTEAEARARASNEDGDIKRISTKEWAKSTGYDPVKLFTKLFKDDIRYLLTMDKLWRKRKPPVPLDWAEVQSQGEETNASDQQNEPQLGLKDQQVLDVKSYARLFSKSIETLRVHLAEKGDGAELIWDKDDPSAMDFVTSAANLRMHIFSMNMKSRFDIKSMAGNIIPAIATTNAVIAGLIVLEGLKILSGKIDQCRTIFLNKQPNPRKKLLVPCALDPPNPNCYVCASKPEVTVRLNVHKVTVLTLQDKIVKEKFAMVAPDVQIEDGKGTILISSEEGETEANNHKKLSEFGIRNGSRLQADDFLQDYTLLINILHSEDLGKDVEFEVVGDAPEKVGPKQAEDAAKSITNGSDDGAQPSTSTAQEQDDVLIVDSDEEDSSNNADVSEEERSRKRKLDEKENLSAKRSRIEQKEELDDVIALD

As usually defined, the IC50 is the midpoint of a concentration-inhibition curve. Regarding `C=CCn1c(NC(=O)c2ccccc2Cl)c(C#N)c2nc3ccccc3nc21`, the concentration for half-maximal inhibition (IC50) on SUMO-activating enzyme is 2.63 µM (active).

The term AC50 denotes the midpoint of the concentration-response curve, whichever way the signal moves. Usually EC50 stands for the concentration that produces a half-maximal response. On to `CCOC(=O)c1ccc(Nc2cc3ccccc3c(O)n2)cc1`, for which the AC50 in test [1] is 11.1 µM (active). The concentration for a half-maximal effect (EC50) on Protein RecA was 9.12 µM (active).

Consider `CCOC(=O)c1sc2nc3c(SCC(=O)O)cc(C(=O)c4ccccc4O)cn3c(=O)c2c1C`, for which the figures for the concentration for half-maximal inhibition (IC50) in test [2] and in test [3] were 1.24 µM (active) and 3.69 µM (active), respectively. On to `O=c1oc2c(O)cccc2cc1-c1nc2ccccc2[nH]1`, for which, on Insulin-degrading enzyme, the EC50 was > 54.7 µM (inactive).
